Measured values from PMC9911596 (Nature Communications, 2023).

Biological target: T1, Vtc1/Vtc3/Vtc4 complex (VTC complex) (Saccharomyces cerevisiae, UniProt P47075+Q02725, Q02725:K333A/Q02725:K362A/Q02725:K364A/Q02725:Y380F)
T1 construct: full-length subunits co-expressed in Expi293F; Vtc1 C-terminal HA, Vtc3 N-terminal 3xFlag, Vtc4 C-terminal 2xStrep; detergent-purified; 3:1:1 pentamer; with Vacuolar transporter chaperone complex subunit 1
T1 sequence (P47075 1-721): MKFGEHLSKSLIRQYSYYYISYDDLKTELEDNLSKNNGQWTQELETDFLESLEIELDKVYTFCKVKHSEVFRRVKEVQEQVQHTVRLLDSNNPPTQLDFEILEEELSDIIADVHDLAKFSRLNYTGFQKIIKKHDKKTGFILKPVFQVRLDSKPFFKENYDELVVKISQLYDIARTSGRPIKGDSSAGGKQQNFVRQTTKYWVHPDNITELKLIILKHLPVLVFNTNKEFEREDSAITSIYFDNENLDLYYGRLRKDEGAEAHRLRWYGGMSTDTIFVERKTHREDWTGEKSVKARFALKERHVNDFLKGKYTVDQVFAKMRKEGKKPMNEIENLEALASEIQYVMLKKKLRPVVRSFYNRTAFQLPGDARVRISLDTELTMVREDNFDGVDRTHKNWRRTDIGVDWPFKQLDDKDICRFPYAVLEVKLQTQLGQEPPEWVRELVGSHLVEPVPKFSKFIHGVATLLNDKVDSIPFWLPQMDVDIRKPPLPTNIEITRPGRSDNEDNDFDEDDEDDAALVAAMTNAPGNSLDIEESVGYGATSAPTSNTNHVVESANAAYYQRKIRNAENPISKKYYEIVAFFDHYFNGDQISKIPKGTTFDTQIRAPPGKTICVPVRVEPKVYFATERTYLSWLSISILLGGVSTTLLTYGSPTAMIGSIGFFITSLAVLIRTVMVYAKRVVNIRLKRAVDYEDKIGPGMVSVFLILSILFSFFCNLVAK
T1 sequence (Q02725 1-835 K333A/K362A/K364A/Y380F): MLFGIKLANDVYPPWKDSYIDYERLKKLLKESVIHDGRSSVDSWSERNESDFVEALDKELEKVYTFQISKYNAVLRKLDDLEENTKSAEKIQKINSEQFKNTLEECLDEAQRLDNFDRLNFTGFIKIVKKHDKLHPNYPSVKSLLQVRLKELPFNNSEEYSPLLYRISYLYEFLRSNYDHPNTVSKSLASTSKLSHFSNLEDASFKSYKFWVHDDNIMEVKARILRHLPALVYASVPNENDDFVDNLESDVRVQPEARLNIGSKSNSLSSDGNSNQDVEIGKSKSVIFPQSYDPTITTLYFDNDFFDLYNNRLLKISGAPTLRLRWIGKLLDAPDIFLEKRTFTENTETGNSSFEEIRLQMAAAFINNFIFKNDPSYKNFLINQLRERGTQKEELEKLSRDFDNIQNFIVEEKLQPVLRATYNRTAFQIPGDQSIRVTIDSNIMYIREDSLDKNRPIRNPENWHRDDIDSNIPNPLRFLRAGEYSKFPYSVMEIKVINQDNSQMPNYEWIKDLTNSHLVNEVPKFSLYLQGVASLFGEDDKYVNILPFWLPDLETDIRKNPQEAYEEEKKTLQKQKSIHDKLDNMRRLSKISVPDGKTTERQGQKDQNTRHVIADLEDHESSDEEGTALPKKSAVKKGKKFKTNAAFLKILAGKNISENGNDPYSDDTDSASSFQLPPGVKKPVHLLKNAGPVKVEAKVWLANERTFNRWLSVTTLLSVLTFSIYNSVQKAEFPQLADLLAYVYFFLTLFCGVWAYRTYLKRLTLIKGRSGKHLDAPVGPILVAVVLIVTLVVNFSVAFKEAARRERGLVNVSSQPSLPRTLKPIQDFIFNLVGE
T1 sequence (P40046 2-129 partner): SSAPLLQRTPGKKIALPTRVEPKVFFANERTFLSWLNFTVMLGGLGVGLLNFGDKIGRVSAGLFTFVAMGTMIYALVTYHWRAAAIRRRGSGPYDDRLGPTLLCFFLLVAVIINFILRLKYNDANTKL
Test: polyP synthesis, TBE-PAGE
Type: biochemical
Details: activator; 15 mM ATP, 10 mM MgCl2, 1 mM MnCl2, 0.5 mM pyrophosphate, 27 °C; TTM cleft (second site) mutant

O=P(O)(O)O[C@H]1[C@H](OP(=O)(O)O)[C@@H](OP(=O)(O)O)[C@H](OP(=O)(O)O)[C@@H](OP(=O)(O)O)[C@H]1OP(=O)(O)O [InsP6]
polyP synthesis, TBE-PAGE: had little impact on InsP6-stimulated polyP synthesis by VTC complex
